Reference: ChEMBL document CHEMBL5518230, “Identification of a Novel Selective CDK9 Inhibitor for the Treatment of CRC: Design, Synthesis, and Biological Activity Evaluation” (J Med Chem, 2024)
Active and inactive are the calls of the source. The rule behind the calls is not given here.

Legend:
[1] = biological target: Cyclin-dependent kinase 1 (Homo sapiens, UniProt P06493); assay: Inhibition of CDK1 (unknown origin)
[2] = Half life in human liver microsomes at 100 uM measured upto 60 mins in presence of NADPH by LC-MS/MS analysis; type: ADME, Microsome
[3] = Intrinsic microsomal clearance in human liver microsomes at 100 uM measured upto 60 mins in presence of NADPH by LC-MS/MS analysis; type: ADME, Microsome; details: read-out: CLH
[4] = Intrinsic clearance in human liver microsomes at 100 uM measured upto 60 mins in presence of NADPH by LC-MS/MS analysis; type: ADME, Microsome; details: 1 h
[5] = Stability in human liver microsomes assessed as compound remaining at 100 uM measured upto 60 mins in presence of NADPH by LC-MS/MS analysis; type: ADME, Microsome; details: read-out: Stability
[6] = Half life in human plasma measured upto 120 mins by LC-MS/MS analysis; type: ADME, cell-free
CYP1A2 = biological target: T1, CYP1A2 (Homo sapiens, UniProt P05177); assay: Inhibition of CYP1A2 in human liver microsomes using alpha-naphthoflavone as […] at 10 uM preincubated for 10 mins followed by NADPH addition measured after 15 mins by LC-MS/MS analysis relative to control; type: ADME, Microsome; details: time 25 min
T1 sequence (P05177 whole entry): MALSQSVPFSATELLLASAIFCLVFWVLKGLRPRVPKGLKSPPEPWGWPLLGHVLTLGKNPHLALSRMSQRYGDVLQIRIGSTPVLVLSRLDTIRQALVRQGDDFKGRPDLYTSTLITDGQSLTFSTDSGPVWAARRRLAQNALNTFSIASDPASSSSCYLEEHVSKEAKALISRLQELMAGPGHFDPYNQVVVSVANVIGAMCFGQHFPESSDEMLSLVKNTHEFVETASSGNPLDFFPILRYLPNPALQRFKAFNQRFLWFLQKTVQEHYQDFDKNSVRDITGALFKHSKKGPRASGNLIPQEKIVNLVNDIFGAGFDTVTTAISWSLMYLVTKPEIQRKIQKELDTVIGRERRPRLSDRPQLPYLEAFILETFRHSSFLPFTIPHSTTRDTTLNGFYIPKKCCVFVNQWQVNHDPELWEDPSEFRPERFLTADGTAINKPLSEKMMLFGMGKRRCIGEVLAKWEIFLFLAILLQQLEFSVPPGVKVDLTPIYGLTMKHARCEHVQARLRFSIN

CYP2C9 = CYP2C9 (Homo sapiens, UniProt P11712); assay: Inhibition of CYP2C9 in human liver microsomes using sulfaphenazole as […] at 10 uM preincubated for 10 mins followed by NADPH addition measured after 15 mins by LC-MS/MS analysis relative to control; type: ADME, Microsome; details: probe sulfaphenazole, time 25 min
Chain of CYP2C9 (P11712 whole entry): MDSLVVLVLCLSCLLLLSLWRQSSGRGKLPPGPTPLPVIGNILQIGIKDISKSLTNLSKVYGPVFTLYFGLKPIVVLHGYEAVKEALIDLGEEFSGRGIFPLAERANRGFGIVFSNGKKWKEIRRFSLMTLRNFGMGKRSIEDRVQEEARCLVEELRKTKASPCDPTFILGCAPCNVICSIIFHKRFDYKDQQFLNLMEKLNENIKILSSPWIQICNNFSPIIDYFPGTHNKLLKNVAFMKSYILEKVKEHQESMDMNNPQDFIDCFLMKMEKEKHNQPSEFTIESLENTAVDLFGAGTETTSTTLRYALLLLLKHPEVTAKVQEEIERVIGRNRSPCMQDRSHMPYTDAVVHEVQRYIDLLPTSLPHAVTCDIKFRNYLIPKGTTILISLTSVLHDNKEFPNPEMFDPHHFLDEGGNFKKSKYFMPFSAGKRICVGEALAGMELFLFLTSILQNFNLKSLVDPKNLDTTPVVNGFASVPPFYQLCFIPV

CYP2D6 = CYP2D6 (Homo sapiens, UniProt P10635); assay: Inhibition of CYP2D6 in human liver microsomes using quinidine as […] at 10 uM preincubated for 10 mins followed by NADPH addition measured after 15 mins by LC-MS/MS analysis relative to control; type: ADME, Microsome; details: time 25 min
Chain of CYP2D6 (P10635 whole entry): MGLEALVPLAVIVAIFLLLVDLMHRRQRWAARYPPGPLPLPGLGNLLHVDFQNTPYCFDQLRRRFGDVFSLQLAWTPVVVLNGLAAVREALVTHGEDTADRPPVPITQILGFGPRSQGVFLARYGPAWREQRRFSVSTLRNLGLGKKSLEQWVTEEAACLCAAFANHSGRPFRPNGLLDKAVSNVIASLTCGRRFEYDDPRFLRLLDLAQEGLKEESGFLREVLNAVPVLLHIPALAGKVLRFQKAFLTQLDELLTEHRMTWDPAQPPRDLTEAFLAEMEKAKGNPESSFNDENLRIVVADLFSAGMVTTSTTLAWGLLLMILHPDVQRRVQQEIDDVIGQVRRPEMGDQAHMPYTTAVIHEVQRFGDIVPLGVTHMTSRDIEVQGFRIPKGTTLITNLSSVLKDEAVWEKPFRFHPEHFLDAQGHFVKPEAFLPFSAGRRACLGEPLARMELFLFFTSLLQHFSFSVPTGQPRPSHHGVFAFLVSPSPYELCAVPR

CYP3A4 = CYP3A4 (Homo sapiens, UniProt P08684); assay: Inhibition of CYP3A4 in human liver microsomes using ketoconazole as […] at 10 uM preincubated for 10 mins followed by NADPH addition measured after 15 mins by LC-MS/MS analysis relative to control; type: ADME, Microsome; details: probe ketoconazole, time 25 min
Chain of CYP3A4 (P08684 whole entry): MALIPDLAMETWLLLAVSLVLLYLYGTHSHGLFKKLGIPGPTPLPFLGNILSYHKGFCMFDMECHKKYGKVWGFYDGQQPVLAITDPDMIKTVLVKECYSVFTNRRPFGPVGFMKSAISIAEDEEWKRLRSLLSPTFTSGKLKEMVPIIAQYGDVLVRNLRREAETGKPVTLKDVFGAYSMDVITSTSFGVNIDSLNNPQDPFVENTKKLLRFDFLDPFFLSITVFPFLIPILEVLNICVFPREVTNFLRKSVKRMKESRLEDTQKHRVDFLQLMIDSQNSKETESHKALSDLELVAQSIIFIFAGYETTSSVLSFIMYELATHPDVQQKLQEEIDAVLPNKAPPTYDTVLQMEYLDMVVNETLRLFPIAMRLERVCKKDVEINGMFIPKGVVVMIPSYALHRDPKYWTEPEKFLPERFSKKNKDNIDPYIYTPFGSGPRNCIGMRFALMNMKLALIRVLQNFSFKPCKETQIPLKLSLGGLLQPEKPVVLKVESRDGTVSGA

SW480 = assay: Growth inhibition of human SW480 cells incubated for 48 hrs by CCK-8 assay; type: functional
[7] = Selectivity index, ratio of GI50 for growth inhibition of human SW480 cells to GI50 for growth inhibition of human HCT-116 cells; type: functional
[8] = C0 in Sprague-Dawley rat at 2 mg/kg,iv administration measured for 0.25 to 24 hrs by LC-MS/MS analysis; type: ADME, organism-based; details: in vivo, time 0.25-24 hrs
[9] = Tmax in Sprague-Dawley rat at 10 mg/kg,po administration measured for 0.25 to 24 hrs by LC-MS/MS analysis; type: ADME, organism-based; details: in vivo, time 0.25-24 hrs
[10] = biological target: Cyclin-dependent kinase 9 (Homo sapiens, UniProt P50750); assay: Inhibition of human CDK9 at 100 nM by kinase profiling assay relative to control
Chain of Cyclin-dependent kinase 9 (P50750 whole entry): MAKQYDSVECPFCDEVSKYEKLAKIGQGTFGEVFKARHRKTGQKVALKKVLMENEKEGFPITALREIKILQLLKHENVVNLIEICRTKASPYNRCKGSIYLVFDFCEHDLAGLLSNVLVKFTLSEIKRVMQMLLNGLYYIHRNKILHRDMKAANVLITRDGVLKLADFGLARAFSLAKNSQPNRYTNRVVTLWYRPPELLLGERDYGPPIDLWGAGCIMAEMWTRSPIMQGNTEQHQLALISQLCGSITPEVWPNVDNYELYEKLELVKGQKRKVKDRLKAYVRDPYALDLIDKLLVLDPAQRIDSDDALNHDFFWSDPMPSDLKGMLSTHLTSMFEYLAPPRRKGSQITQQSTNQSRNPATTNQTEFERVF

[11] = biological target: Serine/threonine-protein kinase Nek1 (Homo sapiens) (UniProt Q96PY6); assay: Inhibition of human NEK1 at 100 nM by kinase profiling assay relative to control
Chain of Serine/threonine-protein kinase Nek1 (Homo sapiens) (Q96PY6 whole entry): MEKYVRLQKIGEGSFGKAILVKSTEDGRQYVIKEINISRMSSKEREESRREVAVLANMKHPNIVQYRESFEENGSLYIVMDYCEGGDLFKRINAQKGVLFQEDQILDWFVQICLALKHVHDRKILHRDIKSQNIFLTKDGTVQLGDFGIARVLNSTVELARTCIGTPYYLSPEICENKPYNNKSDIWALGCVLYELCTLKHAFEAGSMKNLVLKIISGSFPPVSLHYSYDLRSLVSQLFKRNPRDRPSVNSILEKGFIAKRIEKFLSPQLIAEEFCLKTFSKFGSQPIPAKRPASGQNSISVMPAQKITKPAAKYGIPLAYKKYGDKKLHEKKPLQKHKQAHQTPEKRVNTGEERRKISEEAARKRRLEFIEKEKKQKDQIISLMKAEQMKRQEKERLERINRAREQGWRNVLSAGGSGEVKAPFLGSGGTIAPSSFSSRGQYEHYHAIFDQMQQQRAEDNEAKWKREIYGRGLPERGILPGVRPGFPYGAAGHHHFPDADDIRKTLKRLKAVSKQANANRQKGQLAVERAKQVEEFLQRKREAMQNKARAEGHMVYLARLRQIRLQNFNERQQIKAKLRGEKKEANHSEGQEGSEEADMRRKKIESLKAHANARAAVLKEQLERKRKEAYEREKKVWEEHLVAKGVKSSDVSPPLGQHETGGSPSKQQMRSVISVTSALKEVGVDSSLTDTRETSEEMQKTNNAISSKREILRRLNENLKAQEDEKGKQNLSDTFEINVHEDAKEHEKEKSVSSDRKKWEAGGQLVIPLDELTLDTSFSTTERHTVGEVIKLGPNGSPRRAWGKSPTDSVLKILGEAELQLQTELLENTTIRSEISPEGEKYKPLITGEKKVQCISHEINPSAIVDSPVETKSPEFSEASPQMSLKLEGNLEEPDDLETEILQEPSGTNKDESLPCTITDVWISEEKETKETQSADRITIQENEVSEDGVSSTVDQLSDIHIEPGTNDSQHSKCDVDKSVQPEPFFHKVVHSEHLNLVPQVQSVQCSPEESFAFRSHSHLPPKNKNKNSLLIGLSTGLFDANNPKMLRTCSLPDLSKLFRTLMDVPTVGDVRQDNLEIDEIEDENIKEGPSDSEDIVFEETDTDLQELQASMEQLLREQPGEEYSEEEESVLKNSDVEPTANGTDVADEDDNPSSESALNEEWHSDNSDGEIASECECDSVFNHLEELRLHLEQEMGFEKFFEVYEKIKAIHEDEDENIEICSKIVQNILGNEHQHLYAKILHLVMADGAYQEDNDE

[12] = biological target: Serine/threonine-protein kinase PAK 4 (Homo sapiens) (UniProt O96013); assay: Inhibition of human PAK4 at 100 nM by kinase profiling assay relative to control
Chain of Serine/threonine-protein kinase PAK 4 (Homo sapiens) (O96013 whole entry, looked up): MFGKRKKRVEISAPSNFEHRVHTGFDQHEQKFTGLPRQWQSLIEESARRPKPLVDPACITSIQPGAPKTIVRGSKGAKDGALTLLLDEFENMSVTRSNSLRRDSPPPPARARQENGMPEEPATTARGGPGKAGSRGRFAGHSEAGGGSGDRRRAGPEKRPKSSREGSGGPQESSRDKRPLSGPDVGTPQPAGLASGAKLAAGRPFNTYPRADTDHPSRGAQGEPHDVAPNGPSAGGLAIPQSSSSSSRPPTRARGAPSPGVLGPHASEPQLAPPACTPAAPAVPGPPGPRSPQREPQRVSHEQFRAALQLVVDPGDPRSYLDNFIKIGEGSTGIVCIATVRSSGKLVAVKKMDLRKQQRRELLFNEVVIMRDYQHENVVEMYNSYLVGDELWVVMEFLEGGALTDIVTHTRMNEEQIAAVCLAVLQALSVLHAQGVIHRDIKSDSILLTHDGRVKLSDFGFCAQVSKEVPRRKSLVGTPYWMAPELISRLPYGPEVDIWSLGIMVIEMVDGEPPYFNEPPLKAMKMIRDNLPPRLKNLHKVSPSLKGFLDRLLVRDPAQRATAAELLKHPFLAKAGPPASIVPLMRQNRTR

[13] = biological target: Aurora kinase B (Homo sapiens) (UniProt Q96GD4); assay: Inhibition of human AurB at 100 nM by kinase profiling assay relative to control
Chain of Aurora kinase B (Homo sapiens) (Q96GD4 whole entry): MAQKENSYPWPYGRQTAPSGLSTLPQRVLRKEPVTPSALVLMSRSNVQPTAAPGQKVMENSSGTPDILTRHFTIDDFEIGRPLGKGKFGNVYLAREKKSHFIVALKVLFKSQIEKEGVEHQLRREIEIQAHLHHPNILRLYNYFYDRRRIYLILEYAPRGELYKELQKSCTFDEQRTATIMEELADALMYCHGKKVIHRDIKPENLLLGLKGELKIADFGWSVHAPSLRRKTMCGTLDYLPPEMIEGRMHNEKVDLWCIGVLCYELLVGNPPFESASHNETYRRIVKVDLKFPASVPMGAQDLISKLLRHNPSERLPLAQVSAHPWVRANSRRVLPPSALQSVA

[14] = biological target: Protein kinase C alpha type (Homo sapiens) (UniProt P17252); assay: Inhibition of human PKCalpha at 100 nM by kinase profiling assay relative to control
HCT-116 [15] = assay: Induction of apoptosis in human HCT-116 cells assessed as increase in late apoptotic cells incubated for 48 hrs by Annexin V-FITC/PI staining based flow cytometric analysis; type: functional, cell-based
HCT-116 [16] = assay: Induction of apoptosis in human HCT-116 cells assessed as increase in red fluorescence emission by TUNEL staining fluorescence microscopic analysis; type: functional, cell-based
HCT-116 [17] = assay: Induction of apoptosis in human HCT-116 cells assessed as downregulation of […] mRNA expression at 25 to 400 nM incubated for 48 hrs by qRT-PCR analysis; type: functional, cell-based; details: dose 25-400 nM
HCT-116 [18] = assay: Induction of apoptosis in human HCT-116 cells assessed as downregulation of c-Myc mRNA expression at 25 to 400 nM incubated for 48 hrs by qRT-PCR analysis; type: functional, cell-based; details: dose 25-400 nM
[19] = Toxicity in BALB/c mouse xenografted with human HCT-116 cells assessed as body weight loss at 25 mg/kg,po administrated once daily for 3 weeks; type: organism-based; details: in vivo, 504 h
[20] = Toxicity in BALB/c mouse xenografted with human HCT-116 cells assessed as body weight loss at 50 mg/kg,po administrated once daily for 3 weeks; type: organism-based; details: in vivo, 504 h
HCT-116 [21] = assay: Antitumor activity against human HCT-116 cells xenografted in BALB/c mouse assessed as downregulation of RNA polymerase II phosphorylation at 50 mg/kg,po administrated once daily for 3 weeks by Western blotting analysis; type: functional, organism-based
HCT-116 [22] = assay: Antitumor activity against human HCT-116 cells xenografted in BALB/c mouse assessed as upregulation of PARP expression at 50 mg/kg,po administrated once daily for 3 weeks by Western blotting analysis; type: functional, organism-based
[23] = Toxicity in BALB/c mouse xenografted with human HCT-116 cells assessed as heart morphological change at 50 mg/kg,po administrated once daily for 3 weeks by hematoxylin and eosin staining based microscopic analysis; type: organism-based; details: in vivo, 504 h
[24] = Toxicity in BALB/c mouse xenografted with human HCT-116 cells assessed as liver morphological change at 50 mg/kg,po administrated once daily for 3 weeks by hematoxylin and eosin staining based microscopic analysis; type: organism-based; details: in vivo, 504 h
[25] = Toxicity in BALB/c mouse xenografted with human HCT-116 cells assessed as kidney morphological change at 50 mg/kg,po administrated once daily for 3 weeks by hematoxylin and eosin staining based microscopic analysis; type: organism-based; details: in vivo, 504 h

Chain of Cyclin-dependent kinase 1 (P06493 whole entry): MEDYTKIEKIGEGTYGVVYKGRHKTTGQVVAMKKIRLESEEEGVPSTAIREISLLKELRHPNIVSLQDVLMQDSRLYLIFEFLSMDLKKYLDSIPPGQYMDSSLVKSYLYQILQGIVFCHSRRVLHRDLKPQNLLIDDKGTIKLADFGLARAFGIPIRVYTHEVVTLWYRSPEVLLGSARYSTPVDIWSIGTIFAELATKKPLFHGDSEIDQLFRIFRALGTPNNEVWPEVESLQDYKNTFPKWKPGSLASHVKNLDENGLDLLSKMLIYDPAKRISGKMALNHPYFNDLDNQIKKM

## CC(C)n1nnc2ccc(-c3ccnc(Nc4cc(C(=O)N5CCCN(C)CC5)ccn4)c3)cc21
[1]
  IC50: 0.439 µM
[2]
  half-life at 100 µM: 25.2 min
[3]
  microsomal CLint at 100 µM: 55.1 µL/min/mg
[4]
  CLH: 49.6 µL/min/mg
[5]
  remaining at 1 h, 100 µM: 19.6%
[6]
  half-life: > 289 min
CYP1A2
  inhibition at 0.25 h, 10 µM: 34.6%
CYP2C9
  inhibition at 0.25 h, 10 µM: 27.9%
CYP2D6
  inhibition at 0.25 h, 10 µM: 9.9%
CYP3A4
  inhibition at 0.25 h, 10 µM: 0%
SW480
  GI50: 5.09 µM
[7]
  RatioGI50: 92.97
[8]
  C0: 459 ng/mL
[9]
  Tmax: 30 min
[10]
  inhibition: > 90%
[11]
  inhibition: < 50%
[12]
  inhibition: < 50%
[13]
  inhibition: < 50%
[14]
  inhibition: < 50%
HCT-116 [15]
  Activity: Dose-Dependent Effect
HCT-116 [16]
  Activity: Dose-Dependent Effect
HCT-116 [17]
  Activity: Active
HCT-116 [18]
  Activity: Active
[19]
  Activity: Non-Toxic
[20]
  Activity: Non-Toxic
HCT-116 [21]
  Activity: Active
HCT-116 [22]
  Activity: Active
[23]
  Activity: Non-Toxic
[24]
  Activity: Non-Toxic
[25]
  Activity: Non-Toxic
